This data set is described as follows: Solubility in water of riboflavin types. The conditions noted are these: compared with other types of riboflavin. Format: physicochemical.

With `Cc1cc2nc3c(=O)[nH]c(=O)nc-3n(C[C@H](O)[C@H](O)[C@H](O)COP(=O)(O)O)c2cc1C` [riboflavin 5′ phosphate], the solubility in water result was “most soluble in water”.

Source of the values: patent publication US20210371782A1, “METHODS FOR OPTICAL MICROPATTERNING OF HYDROGELS AND USES THEREOF” (President and Fellows of Harvard College, priority 2016, published 2021).
